Data taken from ChEMBL document CHEMBL1177747, “Cytotoxic flavonoids as agonists of peroxisome proliferator-activated receptor gamma on human cervical and prostate cancer cells” (J Nat Prod, 2010).

Tests used:
[1] = target: T1, Peroxisome proliferator-activated receptor gamma (Homo sapiens) (UniProt P37231); assay: Binding affinity to human PPARgamma expressed in Escherichia coli BL21 assessed as binding constant by fluorescence quenching assay
T1 sequence (whole entry): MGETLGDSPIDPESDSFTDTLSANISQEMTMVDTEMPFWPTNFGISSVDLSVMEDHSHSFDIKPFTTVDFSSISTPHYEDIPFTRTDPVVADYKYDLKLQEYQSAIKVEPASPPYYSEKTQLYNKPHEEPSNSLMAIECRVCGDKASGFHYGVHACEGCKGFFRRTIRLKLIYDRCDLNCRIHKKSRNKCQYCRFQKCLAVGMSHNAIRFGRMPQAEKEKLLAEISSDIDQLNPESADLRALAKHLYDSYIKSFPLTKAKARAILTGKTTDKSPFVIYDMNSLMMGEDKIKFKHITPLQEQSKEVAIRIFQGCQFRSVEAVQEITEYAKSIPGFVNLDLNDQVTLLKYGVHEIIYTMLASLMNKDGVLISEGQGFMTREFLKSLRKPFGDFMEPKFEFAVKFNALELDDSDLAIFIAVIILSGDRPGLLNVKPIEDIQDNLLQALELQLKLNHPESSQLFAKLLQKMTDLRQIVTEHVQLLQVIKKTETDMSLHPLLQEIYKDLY

[2] = target: T1, Peroxisome proliferator-activated receptor gamma (Homo sapiens); assay: Agonist activity at human PPARgamma expressed in Escherichia coli BL21 assessed as stimulation of binding between receptor and steroid receptor coactivator-1 by ELISA
[3] = test system: MCF7; assay: Cytotoxicity against human MCF7 cells after 48 hrs by MTT assay; assay type: functional, cell-based; settings: MCF7, 48 h
[4] = test system: MDA-MB-231; assay: Cytotoxicity against human MDA-MB-231 cells after 48 hrs by MTT assay; assay type: functional, cell-based; settings: MDA-MB-231, 48 h
[5] = test system: PC-3; assay: Cytotoxicity against human PC3 cells after 48 hrs by MTT assay; assay type: functional, cell-based; settings: PC-3, 48 h
[6] = target: T1, Peroxisome proliferator-activated receptor gamma (Homo sapiens); assay: Agonist activity at human PPARgamma expressed in Escherichia coli BL21 assessed as stimulation of binding between receptor and steroid receptor coactivator-1 at 320 uM by ELISA relative to untreated control
[7] = test system: A549; assay: Cytotoxicity against human A549 cells after 48 hrs by MTT assay; assay type: functional, cell-based; settings: A549, 48 h
[8] = test system: HeLa; assay: Cytotoxicity against human HeLa cells after 48 hrs by MTT assay; assay type: functional, cell-based

K [1] [×10⁵ /M]	Activity [2]	fold change (FC) [6]	Structure (SMILES)	IC50 [3] [µM]	IC50 [4] [µM]	IC50 [5] [µM]	IC50 [7] [µM]	IC50 [8] [µM]
2.36	Dose-dependent effect	7	O=c1c(O)c(-c2ccccc2)oc2ccc(O)cc12	> 100	> 100	50	100	12.5
3.39	–	2	COc1ccc2c(c1)c(CC(=O)O)c(C)n2C(=O)c1ccc(Cl)cc1 [INDOMETHACIN]	> 100	> 100	> 100	> 100	50
